US10745778B2, “Leaching aids and methods of using leaching aids” (BASF SE, priority 2015, dated 2020)

Test: Surface tension of synthetic pregnant leaching solution (Example 4)
Format: physicochemical
Conditions: synthetic PLS 6 g/L copper, 2 g/L iron, pH about 2.0
Protocol: This example investigated a method for determining the impact of a leaching aid on the surface tension of a typical leaching solution. A synthetic pregnant leaching solution (“PLS”) of 6 g/L copper and 2 g/L iron at a pH of about 2.0 was prepared in deionized (“DI”) water to form a quality control (“QC”) feed. To this, mixtures of synthetic PLS having varying levels of Leach aid A (i.e., MC1000) or Leach Aid B (i.e., TMP-7(EO)) were prepared and the surface tension of each solution was measured.

CCCCCCCCCC[N+](C)(C)CC(=O)[O-] [MC1000]
surface tension as a function of concentration of the leaching aid: decreased with increasing concentration
